# Results taken from patent US11903386B2, “Strigolactone analogs and their usage in plant control” (King Abdullah University of Science and Technology, priority 2016, dated 2024).
# Tests used:
# S. hermonthica = conditions: in vivo; cited from earlier work
# P. ramosa = conditions: in vivo; cited from earlier work
# Orobanche ramosa = conditions: tobacco field; cited from earlier work
# parasite seed = conditions: in vivo; cited from earlier work
# OsD14 = molecular target: T1, OsD14 (Oryza sativa subsp. japonica, UniProt Q10QA5); assay: YLG (Yoshimulactone Green) competitive hydrolysis assay; format: biochemical, rice; conditions: with SE (n=3); read-out: IC50, competitive inhibition of OsD14 mediated YLG hydrolysis
# T1 construct: made in house; host or cells: E. coli BL21 (DE3)
# T1 sequence (Q10QA5 1-318): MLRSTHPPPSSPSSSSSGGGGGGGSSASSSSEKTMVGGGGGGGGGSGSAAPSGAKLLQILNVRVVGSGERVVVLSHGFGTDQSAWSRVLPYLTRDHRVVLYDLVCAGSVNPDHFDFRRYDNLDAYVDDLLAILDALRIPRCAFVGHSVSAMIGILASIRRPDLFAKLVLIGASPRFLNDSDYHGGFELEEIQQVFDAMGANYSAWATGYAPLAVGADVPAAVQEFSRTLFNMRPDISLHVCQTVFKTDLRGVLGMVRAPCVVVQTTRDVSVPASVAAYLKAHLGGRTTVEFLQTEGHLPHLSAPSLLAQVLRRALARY
# Description: (§1) Striga hermonthica ShHTL7 cDNA, GenBank accession KR013127 was kindly provided by Prof. Tadao Asami (The University of Tokyo, Japan). Arabidopsis thaliana D14 (AtD14) cDNA, GenBank accession AY097402 was synthesized and cloned into pUC57 (GenScript). ShHTL7 and OsD14 cDNAs were amplified by RT-PCR using the primers shown in Table 2, digested with BamHI and XhoI, and ligated into BamHI/XhoI digested pGEX-6P-1 expression vector (GE Healthcare). Integrity of plasmids was confirmed by sequencing (KAUST Bioscience Core Lab). The plasmids were then transformed into E. coli BL21 (DE3) cells. The cells were grown in LB broth containing ampicillin ([…]), incubated at 37° C. until OD600 of 0.6 and induced with 0.1 mM isopropyl-β-D-thiogalactopyranoside (IPTG) at 16° C. for 16 h. Harvested cells were re-suspended in lysis buffer: 50 mM Tris-HCl (pH 8.0), 200 mM NaCl, 0.5% Tween-20 and 2 mM dithiothreitol (DTT). After sonication on ice for 10 mins, the lysate was centrifuged at 25,000 rpm for 30 min at 4° C. Supernatant was allowed to bind to glutathione-sepharose beads (GE Healthcare) for 2 h at 4° C., washed 3 times with buffer (50 mM Tris-HCl (pH 8.0), 200 mM NaCl, 2 mM DTT), and eluted by cleaving GST moiety with PreScission™ Protease (GE Healthcare) at 4° C. overnight. Eluted protein was further purified by gel filtration using HiLoad 16/60 Superdex200 prep grade column (GE Healthcare) on an AKTA prime system (GE Healthcare) in gel filtration buffer (10 mM HEPES pH 7.5, 50 mM KCl and 2 mM DTT). Protein eluted as a sharp single peak and purity was judged by 4-15% SDS-PAGE (Bio-Rad). Purified protein was concentrated using an Amicon 10K filter unit (Merck Millipore) and stored at −80° C. until use. Similar expression and purification protocol was followed for OsD14 protein, except that OsD14 was eluted from Glutathione resins using 0.2 mM reduced Glutathione (Sigma) without cutting GST tag.
# In vitro YLG hydrolysis assays were performed as described by Tsuchiya et al., 2015. Hydrolysis assays were carried out using 0.15 μM of recombinant protein OsD14 in a reaction buffer (100 mM PBS buffer, pH 7.3) with 0.1% dimethylsulfoxide (DMSO) at a 300 μl volume on a 96-well black plate (Thermo). For competitive assays, (±) GR24 and (±) MPs at range between 0.03 to 10 μM (or 100 μM) were co-incubated with 0.3 μM of YLG and reacted at 30° C. incubator for 15 min. Fluorescent intensity was measured with excitation at 485 nm and detected at 535 nm. IC50 values were calculated online (http://www.ic50.tk/index.html). Later, values were converted to the existing conditions when treated by 1.0 μM of recombinant proteins.
# rice d10 mutant = assay: Rice micro tillering bioassay, d10 mutant; format: in vivo; conditions: 2.5 μM, hydroponic culture; untreated (Mock) 4 tillers per plant
# Method: (§2) Rice seeds (WT, d3, d10) were surface-sterilized by washing with 70% ethanol for 1 min and then with 2.5% sodium hypochlorite for 15 min. Seeds were then rinsed thoroughly with sterile MilliQ water and incubated in water for 2 days at 30° C. in the dark. Pre-germinated seeds were transferred to filter papers containing ½ strength MS medium in 90 mm petri dishes and incubated at 30° C. under fluorescent white light (130-180 μM m^−2 s^−1) for one week. Seven day-old seedlings were transferred to 50 ml falcon tubes (one seedling per tube) containing modified half-strength Hoagland nutrient solution and grown in greenhouse. Plants were treated with MPs at 2.5 μM-2.5×10-7 μM, using GR24 as positive control. The compounds were applied six times, twice a week. Number of tillers per plant, plant height and fresh biomass were measured at final harvest.
# Statistical analyses were carried out using statistical software package R (version 3.2.2). Dose-response curves and Half Maximum Effective Concentrations (EC50) were calculated to determine optimum amount of MPs. Synthetic strigolactone analog GR24 was used as reference to estimate efficacy of selected compounds. EC50 and estimated response were calculated using drc package (https://cran.r390 project.org/web/packages/drc/) with a Four Parameter Logistic Curve (Dose Response Curve) (Ritz and Streibig, 2005).
# rice d3 mutant = assay: Rice micro tillering bioassay, SL insensitive d3 mutant; format: in vivo; conditions: 2.5 μM, hydroponic culture
# Method: as §2
# ShHTL7 [1] = molecular target: T2, ShHTL7 (Striga hermonthica, UniProt A0A0M3PNA2); assay: In vitro hydrolysis assay with ShHTL7 (HPLC); format: biochemical; conditions: 10 μM substrate, 37° C.
# T2 sequence (A0A0M3PNA2 1-271): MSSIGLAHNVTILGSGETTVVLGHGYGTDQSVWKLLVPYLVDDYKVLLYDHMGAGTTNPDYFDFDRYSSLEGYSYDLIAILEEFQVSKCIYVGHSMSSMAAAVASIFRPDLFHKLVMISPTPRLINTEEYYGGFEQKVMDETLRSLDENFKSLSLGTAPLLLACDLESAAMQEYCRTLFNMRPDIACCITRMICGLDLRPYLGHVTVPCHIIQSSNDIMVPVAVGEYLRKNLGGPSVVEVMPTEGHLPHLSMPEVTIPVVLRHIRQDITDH
# ShHTL7 [2] = molecular target: T2, ShHTL7; assay: Intrinsic tryptophan fluorescence assay; format: binding; conditions: ShHTL7 10 μM, mean±SE (n=3); read-out: Kd, affinity of ShHTL7
# Description: as §1
# ShHTL7 tryptophans were excited at 280 nm and […] emission intensity was measured at 333 nm. ShHTL7 (10 μM) was incubated at various dilutions (0.2, 0.4, 0.8, 1.6, 3.12, 6.25, 12.5, 25 and 50 μM) of GR24 and MPs for 30 minutes at room temperature before measurement. Each concentration point was measured in triplicates. Emitted fluorescence was monitored using spectraMaxi3 (Molecular Devices) plate reader in 96-wells black plates. Changes in tryptophan fluorescence intensity occur due to conformational changes in protein when it is bound to ligand; differences in fluorescence intensity were recorded and analyzed. Data were normalized and dissociation coefficient (Kd) values were calculated by fitting to a binding saturation single-site model with GraphPad (PRISM 6).
# rice leaf segments = assay: Dark-induced leaf senescence of rice leaf segments; format: in vivo, O. sativa, var. Shiokari
# Method: One week old rice (O. sativa, var. Shiokari) seedlings were established as mentioned above. Uniform seedlings were transferred to 50 ml tubes containing half strength Hoaglands nutrient solution for 7 days and grown in an incubator under white fluorescent light (130-180 μM m^−2 s^−1) with 16 h:8 h (L/D) at 28° C. for one week. Leaf segments of 2 cm were cut from middle part of third leaves of rice plants. Each segment was put in a well (in 24-well plates) containing 2 ml of 2.5 mM MES buffer with 0.05% Tween-20, and incubated at 30° C. in the dark for 7 days. After application of MPs, color change, chlorophyll content, ion leakage and gene expression were monitored daily for 7 days.
smiles,measurement,setting,value
COC(=O)/C(=C/O[C@H]1C=C(C)C(=O)O1)N1C(=O)c2ccccc2C1=O [Nijmegen-1],Activity in S. hermonthica seed germination,S. hermonthica,weak germination response
same,"EC50 relative to GR24, orders of magnitude higher",S. hermonthica,3 orders of magnitude
same,Induction of seed germination in P. ramosa,P. ramosa,potent inducer
same,Result of suicidal germination field trial,Orobanche ramosa,very promising results
CC1=CC(Oc2ccc(Br)cc2)OC1=O (stereo not shown) [4-Br debranone],Activity in inducing parasite seed germination,parasite seed,moderate activity in inducing seed germination
"CC1=C[C@H](O/C=C2/C(=O)O[C@@H]3c4ccccc4C[C@H]23)OC1=O [GR24, reference compound]",IC50,OsD14,5.68 ± 0.183 µM
same,"Number of tillers per plant, d10 mutant",rice d10 mutant,1 tiller per plant
same,High-tillering phenotype of d3 mutant (tillers per plant),rice d3 mutant,neither MPs nor GR24 could restore the high-tillering phenotype
same,Hydrolysis rate by ShHTL7,ShHTL7 [1],"followed by MP7, GR24"
same,Kd,ShHTL7 [2],0.44 ± 0.21 µM
same,Transcript levels of Senescence Associated Genes Osl20 and Osl295,rice leaf segments; after 5 days of treatment,striking increase in their transcripts
same,"Change in leaf color, time relative to control","rice leaf segments; dark, leaf segments",about two days earlier than the control
same,"Change in leaf color, day observed","rice leaf segments; dark, leaf segments monitored 7 days",already on the third day after treatment
same,Ion leakage compared to the control,rice leaf segments; first five days,did not detect a difference
same,Ion leakage compared to the control,rice leaf segments; sixth and seventh day,striking increase
same,Chlorophyll content,rice leaf segments; third day,clear reduction
